Measured values as given in patent US11814367B2, “Inhibitors of glycogen synthase 1 (GYS1) and methods of use thereof” (Maze Therapeutics, Inc., priority 2021, dated 2023).
pIC50: −log10 of the molar value.

Legend:
[1] = molecular target: hGYS1 enzyme (recombinant hGYS1/GN1 protein) (Homo sapiens (Human), UniProt P13807); assay: GYS1 coupled enzyme assay (PK/LDH); format: biochemical; details: hGYS1/GN1 50 nM, UDP-Glucose 0.8 mM, G6P 1 mM; geometric mean of at least 2 runs
[2] = system: hGYS1 enzyme / glycogen synthesis in HeLa cells; assay: GYS1 cell based assay (glycogen synthesis, Glucose-glo); parameters: species or system human; details: 24 h incubation, 20 mM glucose, geometric mean of at least 2 runs
Summary of the method: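 HeLa cells starved 24 h in medium containing only 1× Glutamax were plated onto compound in medium with 20 mM glucose (1% DMSO final) for 24 h, 37 °C, 5% CO2. Acid lysates were Tris-quenched, glucoamylase-digested (pH 5.3, 1 h, 37 °C) and read by Glucose-glo luminescence. IC50 came from Hill fits, as geometric mean of ≥2 runs.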

[3] = molecular target: hGYS2 enzyme (recombinant hGYS2/GN1 protein) (Homo sapiens (Human), UniProt P54840); assay: GYS2 coupled enzyme assay (PK/LDH); format: biochemical; details: geometric mean of at least 2 assay runs on separate days, read-out: Avg_IC50
Chain of hGYS2 enzyme (recombinant hGYS2/GN1 protein) (P54840 whole entry): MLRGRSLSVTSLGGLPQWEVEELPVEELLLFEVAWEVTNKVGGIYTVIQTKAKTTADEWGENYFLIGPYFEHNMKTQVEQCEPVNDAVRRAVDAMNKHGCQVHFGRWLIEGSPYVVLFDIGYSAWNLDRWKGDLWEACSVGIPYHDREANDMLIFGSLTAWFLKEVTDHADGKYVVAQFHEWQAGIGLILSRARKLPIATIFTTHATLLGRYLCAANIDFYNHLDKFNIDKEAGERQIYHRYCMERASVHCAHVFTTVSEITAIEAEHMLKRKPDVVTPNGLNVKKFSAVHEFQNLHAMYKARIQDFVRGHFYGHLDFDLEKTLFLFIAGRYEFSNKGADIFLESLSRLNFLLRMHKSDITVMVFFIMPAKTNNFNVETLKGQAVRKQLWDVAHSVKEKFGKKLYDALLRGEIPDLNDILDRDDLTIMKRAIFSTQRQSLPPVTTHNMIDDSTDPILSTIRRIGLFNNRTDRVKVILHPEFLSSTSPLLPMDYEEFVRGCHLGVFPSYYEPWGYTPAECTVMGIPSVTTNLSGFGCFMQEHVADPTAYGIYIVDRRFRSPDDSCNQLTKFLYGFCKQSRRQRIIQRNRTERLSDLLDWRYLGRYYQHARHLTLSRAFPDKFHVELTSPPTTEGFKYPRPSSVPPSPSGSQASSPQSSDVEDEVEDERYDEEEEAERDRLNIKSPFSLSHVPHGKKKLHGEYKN
Chain of hGYS2 enzyme (recombinant hGYS2/GN1 protein) (P46976 whole entry partner): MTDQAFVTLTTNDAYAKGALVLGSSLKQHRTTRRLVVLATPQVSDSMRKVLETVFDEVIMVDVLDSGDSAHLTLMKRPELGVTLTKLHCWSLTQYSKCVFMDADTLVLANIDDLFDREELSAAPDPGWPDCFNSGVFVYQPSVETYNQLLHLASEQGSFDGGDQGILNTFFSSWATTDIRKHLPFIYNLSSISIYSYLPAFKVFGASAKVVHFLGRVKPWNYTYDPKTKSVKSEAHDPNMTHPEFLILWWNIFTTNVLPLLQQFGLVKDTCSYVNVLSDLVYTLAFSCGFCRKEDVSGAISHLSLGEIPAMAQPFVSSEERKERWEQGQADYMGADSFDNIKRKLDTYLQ
Summary of the method: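 Read-out: NADH loss at 340 nm, read each minute for 10 min, slope normalized to controls, duplicate % inhibition fit to Hill (0–100). Enzyme: 200 nM hGYS2/GN1; substrate 2 mM UDP-glucose plus 0.2% glycogen and 2 mM G6P; pH 7.5 Tris, 2.5% DMSO.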

Chain of hGYS1 enzyme (recombinant hGYS1/GN1 protein) (P13807 whole entry): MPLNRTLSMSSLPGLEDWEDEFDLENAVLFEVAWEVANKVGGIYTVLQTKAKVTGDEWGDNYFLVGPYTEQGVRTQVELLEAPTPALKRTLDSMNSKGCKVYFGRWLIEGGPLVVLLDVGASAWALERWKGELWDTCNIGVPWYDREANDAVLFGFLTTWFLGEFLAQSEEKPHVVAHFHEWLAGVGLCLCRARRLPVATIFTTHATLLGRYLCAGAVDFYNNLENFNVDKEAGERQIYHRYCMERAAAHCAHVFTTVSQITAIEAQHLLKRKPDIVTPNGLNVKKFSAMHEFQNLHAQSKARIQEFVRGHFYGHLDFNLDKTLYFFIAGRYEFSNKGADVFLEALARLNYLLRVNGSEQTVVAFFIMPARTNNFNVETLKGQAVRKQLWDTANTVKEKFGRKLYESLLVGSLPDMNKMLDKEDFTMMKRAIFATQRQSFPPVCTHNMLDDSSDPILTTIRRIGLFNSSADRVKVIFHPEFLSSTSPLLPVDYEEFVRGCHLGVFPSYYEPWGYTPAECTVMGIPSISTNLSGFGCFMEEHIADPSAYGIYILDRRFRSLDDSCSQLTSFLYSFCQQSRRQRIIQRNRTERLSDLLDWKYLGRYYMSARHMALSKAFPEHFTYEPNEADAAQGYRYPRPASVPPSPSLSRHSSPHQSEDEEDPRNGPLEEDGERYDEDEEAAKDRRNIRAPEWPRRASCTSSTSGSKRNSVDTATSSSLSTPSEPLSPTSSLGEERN
Chain of hGYS1 enzyme (recombinant hGYS1/GN1 protein) (P46976 whole entry partner): as the sequence (P46976 whole entry partner) above

pIC50 [1] | pIC50 ([2]; Homo sapiens, HeLa, 24 h) | pIC50 [3] | pIC50 [2] | SMILES
8.10 | 6.62 | < 4.00 |  | O=C(N[C@@H](c1ccccc1)c1ccc(C2CC(F)(F)C2)c(F)n1)[C@@H]1C[C@@H](F)CN1C(=O)CNC(=O)N1CCC1 [Compound 503, (2S,4R)-1-{2-[(azetidine-1-carbonyl)amino]acetyl}-N-[(S)-[5-(3,3-difluorocyclobutyl)-6-fluoropyridin-2-yl](phenyl)methyl]-4-fluoropyrrolidine-2-carboxamide]
7.34 | 6.05 | < 4.00 |  | CNC(=O)NCC(=O)N1C[C@H](F)C[C@H]1C(=O)N[C@@H](c1ccccc1)c1ccc(C2CC2)c(F)n1 [Compound 301, (2S,4R)-N-[(S)-(5-cyclopropyl-6-fluoropyridin-2-yl)(phenyl)methyl]-4-fluoro-1-{2-[(methylcarbamoyl)amino]acetyl}pyrrolidine-2-carboxamide]
6.95 | 5.39 | < 4.00 |  | CC(C)c1ccc(C(NC(=O)[C@@H]2C[C@@H](F)CN2C(=O)Cc2cnn[nH]2)c2ccn[nH]2)cc1F (single isomer, unassigned) [Compound 623, (2S,4R)-4-fluoro-N-[(R) or (S)-[3-fluoro-4-(propan-2-yl)phenyl](1H-pyrazol-5-yl)methyl]-1-[2-(1H-1,2,3-triazol-5-yl)acetyl]pyrrolidine-2-carboxamide]
8.00 | 6.66 | < 4.00 |  | Cc1nn(CC(=O)N2C[C@H](F)C[C@H]2C(=O)N[C@@H](c2ccccc2)c2ccc(C(C)C)c(F)n2)c(=O)o1 [Compound 411, (2S,4R)-4-fluoro-N-[(S)-[6-fluoro-5-(propan-2-yl)pyridin-2-yl](phenyl)methyl)-1-[2-(5-methyl-2-oxo-2,3-dihydro-1,3,4-oxadiazol-3-yl)acetyl]pyrrolidine-2-carboxamide]
6.84 | 5.63 | < 4.00 |  | CC(C)c1ccc([C@@H](NC(=O)[C@@H]2C[C@@H](F)CN2C(=O)Cc2nn(C)c(=O)n2C)c2ccccc2)nc1 [Compound 710, (2S,4R)-1-[2-(1,4-dimethyl-5-oxo-4,5-dihydro-1H-1,2,4-triazol-3-yl)acetyl]-4-fluoro-N-[(S)-phenyl[5-(propan-2-yl)pyridin-2-yl]methyl]pyrrolidine-2-carboxamide]
6.45 |  | < 4.00 | 5.28 | CC(C(=O)N1C[C@H](F)C[C@H]1C(=O)N[C@@H](c1ccccc1)c1ccc(C2CC2)c(F)c1)n1cnc2ccccc21 (single isomer, unassigned) [Compound 810, (2S,4R)-1-[(2R) or (2S)-2-(1H-1,3-benzodiazol-1-yl)propanoyl]-N-[(S)-(4-cyclopropyl-3-fluorophenyl)(phenyl)methyl]-4-fluoropyrrolidine-2-carboxamide]
7.42 | 6.46 | < 4.00 |  | CC(C)c1ccc([C@@H](NC(=O)[C@@H]2C[C@@H](F)CN2C(=O)C(C)n2cnnn2)c2ccccc2)cc1F (single isomer, unassigned) [Compound 766, (2S,4R)-4-fluoro-N-[(S)-[3-fluoro-4-(propan-2-yl)phenyl](phenyl)methyl]-1-[(2R) or (2S)-2-(1H-1,2,3,4-tetrazol-1-yl)propanoyl]pyrrolidine-2-carboxamide]
7.57 | 6.29 | < 4.00 |  | O=C(N[C@@H](c1ccccc1)c1ccc(C2CC(F)(F)C2)c(F)c1)[C@@H]1C[C@@H](F)CN1C(=O)Cc1cnn[nH]1 [Compound 546, (2S,4R)-N-[(S)-[4-(3,3-difluorocyclobutyl)-3-fluorophenyl](phenyl)methyl]-4-fluoro-1-[2-(1H-1,2,3-triazol-5-yl)acetyl]pyrrolidine-2-carboxamide]
7.62 | 6.19 | < 4.00 |  | Cn1c(CC(=O)N2C[C@H](F)C[C@H]2C(=O)N[C@@H](c2ccccc2)c2ccc(C3CC3)c(F)c2)cc2ccccc21 [Compound 462, (2S,4R)-N-[(S)-(4-cyclopropyl-3-fluorophenyl)(phenyl)methyl]-4-fluoro-1-[2-(1-methyl-1H-indol-2-yl)acetyl]pyrrolidine-2-carboxamide]

The remaining lines, values behind:

SMILES | pIC50 [1] | pIC50 ([2]; Homo sapiens, HeLa, 24 h) | pIC50 [3] | pIC50 [2]
CC(C)c1ccc([C@@H](NC(=O)[C@@H]2C[C@@H](F)CN2C(=O)CNC(=O)N(C)C)c2ccccc2)nc1 [Compound 250, (2S,4R)-1-{2-[(dimethylcarbamoyl)amino]acetyl}-4-fluoro-N-[(S)-phenyl[5-(propan-2-yl)pyridin-2-yl]methyl]pyrrolidine-2-carboxamide] | 7.37 | 5.90 | < 4.00 | 
CC(C)c1ccc([C@@H](NC(=O)[C@@H]2C[C@@H](F)CN2C(=O)Cc2cccn3c(=O)[nH]nc23)c2ccccc2)nc1 [Compound 258, (2S,4R)-4-fluoro-1-(2-{3-oxo-2H,3H-[1,2,4]triazolo[4,3-a]pyridin-8-yl}acetyl)-N-[(S)-phenyl[5-(propan-2-yl)pyridin-2-yl]methyl]pyrrolidine-2-carboxamide] | 7.59 | 6.13 | < 4.00 | 
CC(C)c1ccc([C@@H](NC(=O)[C@@H]2C[C@@H](F)CN2C(=O)Cn2ncc(N(C)C)n2)c2ccccc2)nc1 [Compound 259, (2S,4R)-1-{2-[4-(dimethylamino)-2H-1,2,3-triazol-2-yl]acety}-4-fluoro-N-[(S)-phenyl[5-(propan-2-yl)pyridin-2-yl]methyl]pyrrolidine-2-carboxamide] | 7.82 | 6.55 | < 4.00 | 
CC(C)c1ccc([C@@H](NC(=O)[C@@H]2C[C@@H](F)CN2C(=O)Cc2cnn[nH]2)c2ccccc2)cc1 [Compound 1, (2S,4R)-1-(2-(1H-1,2,3-triazol-5-yl)acetyl)-4-fluoro-N-((S)-(4-isopropylphenyl)(phenyl)methyl) pyrrolidine-2-carboxamide] | 7.48 | 6.38 | < 4.00 | 
CC(C)c1ccc([C@@H](NC(=O)[C@@H]2C[C@@H](F)CN2C(=O)Cc2nn(C)c(=O)o2)c2ccccc2)nc1 [Compound 266, (2S,4R)-4-fluoro-1-[2-(4-methyl-5-oxo-4,5-dihydro-1,3,4-oxadiazol-2-yl)acetyl]-N-[(S)-phenyl[5-(propan-2-yl)pyridin-2-yl]methyl]pyrrolidine-2-carboxamide] | 7.05 | 5.91 | < 4.00 | 
CC(C)c1ccc([C@@H](NC(=O)[C@@H]2C[C@@H](F)CN2C(=O)Cn2cnc3ccccc32)c2ccccc2)nc1 [Compound 248, (2S,4R)-1-[2-(1H-1,3-benzodiazol-1-yl)acetyl]-4-fluoro-N-[(S)-phenyl[5-(propan-2-yl)pyridin-2-yl]methy]pyrrolidine-2-carboxamide] | 7.92 | 6.70 | < 4.00 | 
CC(C)c1ccc([C@@H](NC(=O)[C@@H]2C[C@@H](F)CN2C(=O)Cn2nncc2CN(C)C)c2ccccc2)cc1 [Compound 241, (2S,4R)-1-(2-{5-[(dimethylamino)methyl]-1H-1,2,3-triazol-1-yl}acetyl)-4-fluoro-N-[(S)-phenyl[4-(propan-2-yl)phenyl]methyl]pyrrolidine-2-carboxamide] | 7.09 | 5.94 | < 4.00 | 
